{
  "source": "patent US20080070939A1",
  "about": "“LOCAL […] COMPOSITIONS CONTAINING DEXTROROTATORY MORPHINAN DERIVATIVES OR PHARMACEUTICALLY ACCEPTABLE SALTS THEREOF” (CHI MEI FOUNDATION HOSPITAL, priority 2006, published 2008)",
  "test_system": "sciatic nerve",
  "test": "Sciatic nerve blockade after injection at the sciatic nerve notch in rats",
  "format": "in vivo",
  "set-up": "AUC of time-% PE curve, sciatic nerve blockade of motor function / AUC of time-% PE curve, sciatic nerve blockade of proprioception / AUC of time-% PE curve, sciatic nerve blockade of nociceptive reaction: unit not given beside the values",
  "settings": "for ED50: Rattus norvegicus",
  "method": "Male Sprague-Dawley rats (weighing about 300 to 350 g); for each dose of each drug, n=6.\nIn brief, the rats were slightly anesthetized by inhalation of a low concentration of sevoflurane. Then, 200 μL of tested drugs were injected at the sciatic nerve notch at the left hind limb of the rat using a 27-gauge needle connected to a tuberculin syringe (Becton Dickinson, USA, model BND309623-BX). Thereafter, development of sciatic nerve blockade was observed from the paralysis of the left hind limb of the rat. The right hind limb served as a control during the subsequent functional assay\nFor proprioception, the front half of the rat body and the right hind limb were off the ground at the same time so that the rat was standing on the left hind limb during the measurement.\nThe differences resided in that: The sciatic nerve notch injections of ED25, ED50 and ED75 were conducted based on the method described in the preceding section “A. Drug injection” of this example. Evaluations of motor function, proprioception and nociceptive reaction were conducted based on the method described in section “B. Neurobehavioral evaluations” of this example.\nThe differences resided in that: Before the statistical analysis, Shapiro-Wilk test was used to evaluate whether the data were, theoretically, normally distributed.",
  "key": {"[1]": {"settings": "dosage of 6.7 mg/kg, sciatic nerve notch injection, rats"}, "[2]": {"settings": "rats, 2ED50 when administered independently, ED50 of each drug when co-administered, mean ± SEM"}},
  "note": "Counter-ions that a name gives are not always drawn. Like-named read-outs stand apart in the source and are kept apart here.",
  "data": [
    {"smiles": "COc1ccc2c(c1)[C@]13CCCC[C@@H]1[C@H](C2)N(C)CC3", "note": "[Dextromethorphan hydrobromide monohydrate]", "values": [
      {"measurement": "sciatic nerve blocking effect on nociceptive reaction compared with motor function", "setting": "ED50 basis, p<0.01, rats", "result": "more potent sciatic nerve blocking effect on nociceptive reaction than on motor function"},
      {"measurement": "ED50", "setting": "read-out: Mean ED50", "result": 3.72, "unit": "mg/kg"},
      {"measurement": "ED50", "setting": "read-out: Motor function ED50 (95% CI)", "result": 3.95, "unit": "mg/kg"},
      {"measurement": "ED50", "setting": "read-out: Nociceptive reaction ED50 (95% CI)", "result": 3.49, "unit": "mg/kg"},
      {"measurement": "ED50", "setting": "read-out: Proprioception ED50 (95% CI)", "result": 3.73, "unit": "mg/kg"},
      {"measurement": "% MPE of sciatic nerve blockade of motor function", "setting": "[1]", "result": "about 71±7 % MPE"},
      {"measurement": "% MPE of sciatic nerve blockade of nociceptive reaction", "setting": "[1]", "result": "~83±11", "unit": "% MPE"},
      {"measurement": "% MPE of sciatic nerve blockade of proprioception", "setting": "[1]", "result": "~78±7", "unit": "% MPE"},
      {"measurement": "duration of sciatic nerve blockade of motor function", "setting": "[1]", "result": "about 77±10 minutes"},
      {"measurement": "duration of sciatic nerve blockade of nociceptive reaction", "setting": "[1]", "result": "~85 ± 11", "unit": "min"},
      {"measurement": "duration of sciatic nerve blockade of proprioception", "setting": "[1]", "result": "~78 ± 8", "unit": "min"},
      {"measurement": "effect of co-administration with lidocaine hydrochloride on sciatic nerve blockades", "setting": "rats, ED50 of each drug", "result": "additive effect"},
      {"measurement": "AUC of time-% PE curve, sciatic nerve blockade of motor function", "setting": "[2]", "result": "4056 ± 212"},
      {"measurement": "AUC of time-% PE curve, sciatic nerve blockade of nociceptive reaction", "setting": "[2]", "result": "6295 ± 643"},
      {"measurement": "AUC of time-% PE curve, sciatic nerve blockade of proprioception", "setting": "[2]", "result": "5498 ± 507"},
      {"measurement": "duration of sciatic nerve blockade compared with lidocaine hydrochloride", "setting": "same effective doses (ED25, ED50 or ED75), rats", "result": "longer reaction duration"}
    ]}
  ]
}
